Test results: US12728116B2, “Methods of treating multiple sclerosis” (Vanda Pharmaceuticals Inc., priority 2021, dated 2026)
Where “and” joins values, the source holds several entries; their conditions need not be identical. Identical values can stand only once.

How the values were obtained:
[1] = system: adult subjects with relapsing MS; experiment: Premature treatment discontinuation; assay type: in vivo; conditions: for Subjects discontinued due to AEs or tolerability related reasons: ponesimod 20 mg, teriflunomide 14 mg
Procedure: A total of 1468 subjects were screened. Of those, 1133 subjects were randomized (567 to ponesimod 20 mg and 566 to teriflunomide 14 mg) across 162 sites in 28 countries, and 1131 subjects received at least one dose of study drug. The disposition of subjects is summarized in Table 1 and a summary of reasons (primary reason) for treatment discontinuation are shown in Table 2. Overall treatment and study discontinuation were balanced across both treatment arms. A total of 6.5% and 2.5% of the subjects discontinued due to AEs or tolerability related reasons in ponesimod 20 mg and teriflunomide 14 mg, respectively, while 1.9% and 4.3% discontinued due to efficacy related reasons. There were 2 deaths reported during the study—both on teriflunomide 14 mg.

[2] = system: adult subjects with relapsing MS; experiment: Combined unique active lesions (CUAL) on brain MRI from baseline to Week 108; assay type: in vivo, human; conditions: for CUAL mean estimate (Lesions per year), negative binomial regression: ponesimod 20 mg, teriflunomide 14 mg; for Total number of lesions (CUAL): total time 1072 / 1067 years; for Raw mean lesions/year (CUAL): baseline to week 108
Procedure: Secondary efficacy variables and testing strategy: Four secondary efficacy endpoints were analyzed as per the statistical testing strategy outlined in FIG. 1. • Change from baseline to Week 108 in fatigue-related symptoms as measured by the symptoms domain of the FSIQ-RMS patient-reported outcome [Fatigue] • Cumulative number of combined unique active lesions from baseline to Week 108 on brain MRI [CUALs] • Time to first 12-week confirmed disability accumulation (CDA) from baseline to EOS on Expanded Disability Status Scale (EDSS) [12-week CDA] • Time to first 24-week CDA from baseline to EOS on EDSS [24-week CDA]
CUAL are new Gd+T1 lesions plus new or enlarging T2 lesions (without double-counting of lesions).
MRI scans were performed at Visits 2 (Baseline). 10 (Week 60), and 14 (EOT) and at any unscheduled visit (U1, U2, etc.). If applicable, MRI scans also were performed at the corresponding visits in the PTOP (Visits 10A and 14A). Testing at all visits were performed up to 7 days prior to or after the visit date.
T1-weighted imaging before and after i.v. administration of 0.1 mmol/kg body weight (=0.2 mL/kg) of Gd as well as PD-T2-weighted imaging was performed. Gd may cause nausea and vomiting and in very rare cases allergic reactions that could require immediate anti-anaphylactic therapy (such as steroids, epinephrine/adrenaline, etc.).
ARR differences and mean number of CUALs were examined using a negative binomial regression model with adjusting for the log time in the study (in years) as an offset.

[3] = system: Patients (18-55 years) with RMS; experiment: Prespecified MRI-based endpoints and NEDA-3 status; assay type: in vivo, human
Procedure: Patients (18-55 years) with RMS (expanded disability status scale scores: 0-5.5) were randomized (1:1) to receive ponesimod (PON) 20 mg or teriflunomide (TER) 14 mg for 108 weeks. MRI assessments were: volume of T2 lesions; mean number of new gadolinium-enhancing (Gd+) T1 lesions and new/enlarging T2 lesions; and absence of active MRI lesions at week 108. NEDA-3 status (absence of confirmed relapse, Gd+T1 lesions and new/enlarging T2 lesions on annual MRIs, and 12-week confirmed disability accumulation) was evaluated from baseline to week 108.

[4] = baseline to Week 108, Full Analysis Set

`CCC/N=C1\S/C(=C\c2ccc(OC[C@H](O)CO)c(Cl)c2)C(=O)N1c1ccccc1C` [Ponesimod, (R)-5-[3-chloro-4-(2,3-dihydroxy-propoxy)-benz[Z]ylidene]-2-([Z]-propylimino)-3-o-tolyl-thiazolidin-4-one] was tested, and the “Premature discontinuation: Physician decision, Adverse event, %” value ([1]; Safety Set) was “(5.1) %”, the “Premature discontinuation: Subject decision, Tolerability related, %” value ([1]; Safety Set) was “(1.4) %” and the “Subjects discontinued due to AEs or tolerability related reasons” value [1] was 6.5%. For the same molecule, the “CUAL treatment effect (Rate Ratio), ponesimod vs. teriflunomide” value [2, 4] was 0.44 and 0.444, the “CUAL mean estimate (Lesions per year), negative binomial regression” value [2, 4] was 1.405 Lesions per year and the “Total number of lesions (CUAL)” value ([2]; baseline to Week 108) was 1671. The “Raw mean lesions/year (CUAL)” value [2] was 1.559 lesions/year, the “CUALs, benefit compared with teriflunomide in subgroups” value ([2]; patients with EDSS≤3 and treatment-naïve patients) was “benefited from ponesimod compared with teriflunomide” and the “Reduction of number of CUALs between baseline and week 108 compared to teriflunomide” value ([2]; ponesimod 20 mg vs teriflunomide 14 mg) was 56%. For the same molecule, the “Odds ratio for achieving NEDA-3, PON vs TER” value ([3]; At week 108) was 1.70, the “Patients who achieved NEDA-3” value ([3]; At week 108) was 28.2% and the “Mean number of new Gd+T1 lesions per scan” value ([3]; baseline to week 108) was 0.18. The “Mean numbers of new/enlarging T2 lesions per year” value ([3]; baseline to week 108) was 1.40, the “Rate ratio, new Gd+T1 lesions per scan, PON vs TER” value ([3]; baseline to week 108) was 0.42 and the “Rate ratio, new/enlarging T2 lesions per year, PON vs TER” value ([3]; baseline to week 108) was 0.44. The “Least square (LS) mean difference (PON-TER) in change from baseline in total volume of T2 lesions” value ([3]; baseline to week 108, PON 20 mg vs TER 14 mg) was −399.2 mm^3, the “PON vs TER odds ratio for absence of new Gd+T1 lesions” value ([3]; week 108) was 2.18 and the “PON vs TER odds ratio for absence of new/enlarging 12 lesions” value ([3]; week 108) was 1.71.

With `C/C(O)=C(\C#N)C(=O)Nc1ccc(C(F)(F)F)cc1` [Teriflunomide, reference compound] the “Premature discontinuation: Death, %” value ([1]; Safety Set) was “(0.4) %”, the “Premature discontinuation: Physician decision, Adverse event, %” value ([1]; Safety Set) was “(1.6) %” and the “Premature discontinuation: Subject decision, Tolerability related, %” value ([1]; Safety Set) was “(0.9) %”. For the same molecule, the “Subjects discontinued due to AEs or tolerability related reasons” value [1] was 2.5%, the “CUAL mean estimate (Lesions per year), negative binomial regression” value [2, 4] was 3.164 Lesions per year and the “Total number of lesions (CUAL)” value ([2]; baseline to Week 108) was 3714. For the same molecule, the “Raw mean lesions/year (CUAL)” value [2] was 3.481 lesions/year, the “Patients who achieved NEDA-3” value ([3]; At week 108) was 18.3% and the “Mean number of new Gd+T1 lesions per scan” value ([3]; baseline to week 108) was 0.43. For the same molecule, the “Mean numbers of new/enlarging T2 lesions per year” value ([3]; baseline to week 108) was 3.16.
